This is an account of results in PMC5104425, “A Novel Selective Inhibitor of Delta-5 Desaturase Lowers Insulin Resistance and Reduces Body Weight in Diet-Induced Obese C57BL/6J Mice” (PLoS ONE, 2016).

By IC50 is commonly meant the concentration at which inhibition is half-maximal. High values mean weaker potency, low ones greater potency.

For experiment [1], the target named is T1, rat D6D (Rattus norvegicus, UniProt Q9Z122).
T1 construct: using hepatic microsomes prepared from SD rats; from tissue; host or cells: liver microsomes of SD rats (CLEA, Japan)
T1 sequence (Q9Z122 whole entry): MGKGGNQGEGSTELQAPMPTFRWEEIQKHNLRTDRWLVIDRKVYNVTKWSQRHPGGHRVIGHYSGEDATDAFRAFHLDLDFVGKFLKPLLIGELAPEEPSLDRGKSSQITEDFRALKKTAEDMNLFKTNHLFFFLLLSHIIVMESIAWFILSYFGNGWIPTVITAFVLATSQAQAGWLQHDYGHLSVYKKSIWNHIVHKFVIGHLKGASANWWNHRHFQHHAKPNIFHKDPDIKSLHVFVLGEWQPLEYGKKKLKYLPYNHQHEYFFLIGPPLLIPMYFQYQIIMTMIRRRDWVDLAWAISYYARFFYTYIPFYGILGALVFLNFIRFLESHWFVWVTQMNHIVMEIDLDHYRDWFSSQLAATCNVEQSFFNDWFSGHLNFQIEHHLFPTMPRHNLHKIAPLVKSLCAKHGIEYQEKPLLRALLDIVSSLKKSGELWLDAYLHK
The experiment can be described thus: In vitro enzyme assay for desaturase activity (hepatic microsomes), D6D. The experiment is classed as biochemical. How it is done: (§1) Therefore, we also confirmed that compound-326 has no effect on D9D activity. Inhibitory activity of compound-326 on rat D5D, D6D, and D9D was evaluated using hepatic microsomes prepared from SD rats (CLEA, Japan) as described previously. Assays were performed in a total volume of 30 μL in 96-well plates in a buffer containing 100 mM NaHPO4, 150 mM KCl, 10 mM NaF, 1.5 mM glutathione, 3 mM MgCl2, 1 mM NADH, 3 mM ATP, 0.3 mM CoA-SH, and 0.1% fatty acid free bovine serum albumin (BSA, Sigma, St. Louis, MO); and 0.1 μCi/well of [^14C] DGLA or [^14C] linoleic acids (ARC, St. Louis, MO) were used as substrates for measuring D5D and D6D activities, respectively. After pre-incubation of the test compound with rat liver microsomes (final 1.0 mg/mL) for 5 min, the reaction was started by the addition of NADH, ATP, and the substrates, and the reaction mixture was incubated for another 120 min at room temperature. For D9D assay, [^14C] stearoyl-CoA (PerkinElmer, Waltham, MA) was used in the absence of NADH, ATP, and CoA-SH, and D9D enzyme reaction was performed for 30 min. The reactions were then terminated by the addition of 0.63 N NaOH. […] 2.3 (Fujifilm) and IC50 values were determined using the conversion ratio from the radioactive substrates (20:3n6, 18:2n6 and 18:0) to the products (20:4n6, 18:3n6 and 18:1n9).

For experiment [2], the target named is T2, rat D9D (Rattus norvegicus, UniProt P07308).
T2 construct: using hepatic microsomes prepared from SD rats; from tissue; host or cells: liver microsomes of SD rats (CLEA, Japan)
T2 sequence (P07308 1-358): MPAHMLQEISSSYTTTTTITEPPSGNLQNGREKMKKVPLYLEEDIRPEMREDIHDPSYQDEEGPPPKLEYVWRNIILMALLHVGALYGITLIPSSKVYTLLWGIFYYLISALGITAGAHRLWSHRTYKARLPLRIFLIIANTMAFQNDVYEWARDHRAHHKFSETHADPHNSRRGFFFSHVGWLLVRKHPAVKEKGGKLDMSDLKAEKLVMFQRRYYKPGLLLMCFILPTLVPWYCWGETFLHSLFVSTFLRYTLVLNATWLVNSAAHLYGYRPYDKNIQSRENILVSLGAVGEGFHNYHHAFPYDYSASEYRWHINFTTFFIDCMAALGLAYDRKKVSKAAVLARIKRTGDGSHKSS
The experiment can be described thus: In vitro enzyme assay for desaturase activity (hepatic microsomes), D9D. In kind it is biochemical. The method, then: as §1

Experiment [3] has as its system DIO mice. Description: Oral glucose tolerance test and HOMA-IR after 6-week treatment in DIO mice. The experiment is classed as in vivo, C57BL/6J mice. The method, then:
Mice were fed a high-fat diet (HFD) that has 60% kcal from fat and contains 0.09% (w/w) AA (D12492; Research diets, Inc., see S1 Table for fatty acid profile) from 5 weeks of age, and they were divided into 5 groups (7 animals per group) at 11 weeks of age based on BW and daily food intake. In this experiment, 30 mg/kg sibutramine, a […], was used as a positive control for anti-obesity effects. Mice were orally administered compound-326 at doses of 0.1, 1, and 10 mg/kg, sibutramine at a dose of 30 mg/kg, or vehicle for 6 weeks. After 6 weeks, blood concentrations of DGLA and AA under non-fasting condition were evaluated as pharmacodynamics (PD) markers, and oral glucose tolerance test (OGTT) was performed.
On the last day of the experiment, mice were given an oral glucose load (2 g/kg) after overnight fasting. Blood samples were collected at specified time points of 0 (pre-glucose/fasting glucose levels), 10, 30, 60, and 120 min post glucose load for the determination of plasma glucose as well as insulin levels. Plasma glucose was enzymatically measured with auto-analyzer 7180 (Hitachi High-Technologies Corporation, Tokyo, Japan). Plasma insulin was measured with mouse insulin ELISA kit (Shibayagi, Gunma, Japan). The total area under the glucose curve was determined from time 0 to 120 min (AUC0–120 min) after glucose administration. Homeostasis model assessment-insulin […] (HOMA-IR) was calculated using the formula: [(fasted PG: mg/dL)×(fasted insulin; μU/mL)[…]/405] [28].

Experiment [4] has as its system DIO mice. Description: Established DIO mice (HFD D12079B for 50 weeks), 11-week treatment: BW, calorie intake, fat mass. In kind it is in vivo, C57BL/6J mice. The method, then:
In this report, we performed 3 independent studies in DIO mice to characterize anti-obesity effects of our D5D specific inhibitor. Male C57BL/6J mice were obtained from Charles River Laboratories (Yokohama, Japan) or CLEA Japan (Osaka, Japan). The mice were fed a laboratory chow and water ad libitum and housed in a 12-h light/dark cycle. Compound or vehicle was administered once daily between 15: 00–19:00 by oral gavage. Body weight (BW) and food intake were monitored throughout the experiment.
To evaluate the effect on daily EE, DIO mice fed a HFD that has 41% kcal from fat and contains no AA (D12079B; Research diets, Inc., see S1 Table for fatty acids composition) for 50 weeks were used. At 55 weeks of age, DIO mice were divided into two weight-matched groups (7 animals per group) and treated with vehicle or 10 mg/kg compound-326 for 11 weeks. […] Indirect calorimetry test was performed on day1, 8, 15, 21, and 56 during the study. Daily EE was analyzed using ANCOVA with body mass as covariate. After the treatment period, mice were sacrificed and fat tissues were harvested to evaluate the weights.

For experiment [5], the system named is DIO mice. The experiment can be described thus: 6-week treatment of HFD (D12079B)-fed DIO mice: BW and blood/tissue fatty acids. In kind it is in vivo, C57BL/6J mice. How it is done: Fatty acids were extracted from blood and tissues by adding hexane-isopropanol-butylated hydroxytoluene (60:40:0.01, v/v/w). Samples were vortexed for 30 min. The hexane phase was removed and evaporated to dryness under nitrogen stream and vacuum. Dried samples were dissolved in methanol and analyzed by HPLC.
Mice fed a HFD that has 41% kcal from fat and contains no AA (D12079B; Research diets, Inc.) from 5 weeks of age were divided into 2 groups at the age of 8 weeks (8 animals per group), and were administered 10 mg/kg compound-326 or vehicle for 6 weeks. After the treatment period, mice were sacrificed and epididymal and subcutaneous fats were harvested for mRNA analysis. Nine animals maintained on a standard chow (CE2, CLEA Japan, Osaka) were used as control.

[6] abbreviates: 10 mg/kg, after 6-week treatment.

Regarding `O=C1Cc2c(nc(OCC(F)(F)C(F)(F)F)n(-c3ccc(OCC(F)(F)F)cc3)c2=O)N1` [Compound-326, 2-(2,2,3,3,3-Pentafluoropropoxy)-3-[4-(2,2,2-trifluoroethoxy)phenyl]-5,7-dihydro-3H-pyrrolo[2,3-d]pyrimidine-4,6-dione], the “inhibition of D6D activity” value in experiment [1] is given as “almost no inhibition”. Besides, the IC50 in experiment [1] (Enzyme (hepatic microsomes)) was over 10 µM. The molecule also showed an IC50 in experiment [2] (Enzyme (hepatic microsomes), rat) of over 10 µM. In experiment [2] (species not given), the “effect on D9D activity” value is “no effect”. Further, the HOMA-IR entry in experiment [3] (compound-326 0.1, 1, 10 mg/kg, after 6-week treatment, dose-dependent) is “decreased”. Besides, in experiment [3] (compound-326, after 6-week treatment), the “insulin levels (OGTT)” value is “no change”. Further, the “glucose tolerability and insulin sensitivity” value in experiment [3] (observed from dose of 1 mg/kg without a significant decrease in BW) is “improvement”. The daily calorie intake result in experiment [4] (10 mg/kg p.o., 11 weeks) is listed as “slightly decreased until day 21, followed by a trend toward increase”. Besides, the cumulative calorie intake entry in experiment [4] (10 mg/kg p.o., 11 weeks (data not shown)) was “no appreciable change”. In experiment [4] (10 mg/kg p.o., 11 weeks, from day 21 until day 77), the BW result is “sustained and significant BW reduction”. For the same molecule, in experiment [4] (10 mg/kg, 11 weeks, mesenteric fat p≤0.05, subcutaneous and epididymal fat p≤0.01 vs vehicle), the “white adipose tissue (WAT) depot mass” value is given as “marked decrease”. Further, in experiment [5] (10 mg/kg p.o., 6 weeks), the “AA to DGLA ratio in epididymal fat” value is on record as “significantly decreased”; the “AA to DGLA ratio in the blood” value was “decrease”; the “AA to DGLA ratio in the liver” value is reported as “significantly decreased”; the “n-3 PUFA (EPA and DHA) in blood, liver, and adipose tissue” value is given as “significantly decreased”. Further, the BW result in experiment [5] (10 mg/kg p.o., 6 weeks, vs vehicle) was “significantly decreased”. For the same molecule, in experiment [5] (setting [6]), the “AA in the blood as well as liver” value was “decrease” and the “DGLA in the blood as well as liver” value is “increase”.
